# Experimental data published in ChEMBL document CHEMBL1129157, “Design and synthesis of a new class of conformationally constrained inhibitors to probe the active sites of thermolysine and neutral endopeptidase 24.11” (Bioorg Med Chem Lett, 1996).
# Tests used:
# Neprilysin = biological target: T1, Neprilysin (Rattus norvegicus, UniProt P07861); experiment: Compound was tested for inhibition of rat kidney neutral endopeptidase
# T1 sequence (P07861 whole entry): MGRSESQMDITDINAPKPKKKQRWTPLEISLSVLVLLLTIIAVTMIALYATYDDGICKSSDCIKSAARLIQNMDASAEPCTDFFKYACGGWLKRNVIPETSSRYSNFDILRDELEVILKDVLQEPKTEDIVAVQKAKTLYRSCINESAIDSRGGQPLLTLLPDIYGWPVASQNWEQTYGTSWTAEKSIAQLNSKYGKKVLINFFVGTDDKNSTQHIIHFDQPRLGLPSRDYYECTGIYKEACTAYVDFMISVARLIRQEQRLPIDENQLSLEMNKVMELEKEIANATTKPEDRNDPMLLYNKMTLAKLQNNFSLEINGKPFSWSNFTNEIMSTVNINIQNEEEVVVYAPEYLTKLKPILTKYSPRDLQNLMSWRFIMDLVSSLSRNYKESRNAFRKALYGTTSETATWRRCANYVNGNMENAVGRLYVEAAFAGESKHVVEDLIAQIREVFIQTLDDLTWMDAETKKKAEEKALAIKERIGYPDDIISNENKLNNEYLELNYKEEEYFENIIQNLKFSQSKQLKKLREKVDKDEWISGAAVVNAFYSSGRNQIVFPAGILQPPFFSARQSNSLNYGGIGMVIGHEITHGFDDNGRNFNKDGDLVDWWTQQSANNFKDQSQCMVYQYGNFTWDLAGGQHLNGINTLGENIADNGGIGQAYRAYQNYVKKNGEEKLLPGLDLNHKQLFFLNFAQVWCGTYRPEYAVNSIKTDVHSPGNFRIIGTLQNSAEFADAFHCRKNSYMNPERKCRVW
# [1] = Compound was tested for inhibition of thermolysine, a bacterial zinc-endopeptidase; format: functional
SMILES,IC50 (Neprilysin) [nM],IC50 [1] [nM]
O=C(O)[C@@H]1CCCC2c3ccccc3C[C@H](CS)C(=O)N21 (some centres not stated),> 300,–
O=C(O)CNC(=O)[C@H](CS)Cc1ccccc1 [(R)-THIORPHAN],–,3000
O=C(O)CNC(=O)[C@H]1[C@H](S)CC[C@@H]1c1ccccc1,430,29000
O=C(O)CNC(=O)[C@@H]1[C@@H](S)CC[C@H]1c1ccccc1,480,110000
O=C(O)CNC(=O)[C@@H](CS)Cc1ccccc1 [(S)-THIORPHAN],–,1800
